In patent US6441011B1, “Combined preparation consisting of 2-methylthiazolidine-2,4-dicarboxylic acid and paracetamol” (priority 1997, dated 2002):
Marks after values point to notes of the source that are not given here.

What was measured:
Hep G2 cells = assay: Cytotoxicity of paracetamol and protective action of CP on permanent hepatic cell line; assay type: cell-based
Description: The cells were kept for 10 days in a medium that contained paracetamol (1 mM). […] The concentrations of the indicator substances were measured at the end of the period of exposure (Table 3). […] It is therefore recommended to choose higher AA concentrations for later experiments.

mice [1] = assay: Paracetamol liver damage and pre-treatment with CP: indicator substances in hepatic tissue and blood; assay type: in vivo; details: for Cysteine / Cystine / Glycogen / Non-protein SH / Oxygen radicals / Protein SH / Total SH / AlAT / AspAT: CP 1.2 mmol/kg pre-treatment, 12 h later paracetamol 600 mg/kg i.p. or control solution; for Cysteine / Cystine / Glycogen / Non-protein SH / Oxygen radicals / Protein SH / Total SH: tissue after another 3 h; for AlAT / AspAT: blood serum, blood after another 3 h; for concentration of oxygen radicals / concentration of sulfhydryl groups / free cysteines in the hepatic tissue / glycogen in the hepatic tissue / enzymes in the blood serum released from the liver (AlAT, AspT): paracetamol 600 mg/kg single dose, CP pre-treatment 1.2 mmol/kg; for enzymes in the blood serum released from the liver (AlAT, AspT): within 3 hours
Description: (§1) The mice were pre-treated using 1.2 mmol CP/kg, and 12 hours later they were treated with the control solution or 600 mg of paracetamol/kg of body weight i.p. Hepatic tissue and blood were extracted after another 3 hours, and the indicator substances were measured.

mice [2] = assay: Toxic effects of CP under in-vivo conditions; details: up to a dose of 2.4 mmol CP/kg of body weight
Description: as §1

mice [3] = assay: Time-dosage dependency: GSH in hepatic tissue after CP injection; assay type: in vivo; details: for GSH % of control / GSH: mice
[4] = Hep G2 cells, 10 days, AA 1 mM, CP 2 mM
[5] = Hep G2 cells, 10 days, AA 1 mM, simultaneous CP 2 mM
[6] = CP 1.2 mmol/kg, 8 h after injection
[7] = CP 2.4 mmol/kg, 4 h after injection

SMILES	L-cysteine and cystine concentrations (Hep G2 cells; [5])	free radicals (Hep G2 cells; [5])	Cysteine (mice [1])	Cystine (mice [1])	Glycogen (mice [1])	Non-protein SH (mice [1])	Oxygen radicals (mice [1])	Protein SH (mice [1])	Total SH (mice [1])	AlAT (mice [1]) [units/l]	AspAT (mice [1]) [units/l]	concentration of oxygen radicals (mice [1])	concentration of sulfhydryl groups (mice [1])	free cysteines in the hepatic tissue (mice [1])	glycogen in the hepatic tissue (mice [1])	enzymes in the blood serum released from the liver (AlAT, AspT) (mice [1])	other results
CC(=O)Nc1ccc(O)cc1 [Paracetamol, paracetamol]	dropped slightly	increase	0.062^a ± μmol/g wet weight of the liver	0.025^a ± μmol/g wet weight of the liver	8.45^a ± mg/g wet weight of the liver	0.22^a ± μmol/g wet weight of the liver	0.317^a ± μmol/g wet weight of the liver	12.34 ± 0.20 μmol/g wet weight of the liver	12.56^a ± μmol/g wet weight of the liver	682	855	increased	dropped dramatically	dropped dramatically	dropped dramatically	enormous increase	concentrations of the other indicator substances (Hep G2 cells; Hep G2 cells, 10 days, AA 1 mM): remained unchanged; Cysteine (Hep G2 cells; [4]): 3.68 nmol/mg Protein; Cystine (Hep G2 cells; [4]): 0.130 nmol/mg Protein; GSH (Hep G2 cells; [4]): 14.9 nmol/mg Protein; Glutamine synthetase (Hep G2 cells; [4]): 0.41 units/mg protein; LDH (Hep G2 cells; [4]): 1.88 units/mg protein; NPSH (Hep G2 cells; [4]): 18.90 nmol/mg Protein; free radicals (Hep G2 cells; [4]): 0.210 nmol/mg Protein; number of cells (Hep G2 cells; [4]): 6 × 10^8 cells; vital cells (Hep G2 cells; [4]): 94% vital
CC1(C(=O)O)NC(C(=O)O)CS1 (centres unmarked) [CP, 2-methyl-thiazolidine-2,4-dicarboxylic acid]	more than compensated	prevented	0.240^a ± μmol/g wet weight of the liver	0.020^a ± μmol/g wet weight of the liver	12.59 ± 0.21 mg/g wet weight of the liver	3.81^a ± μmol/g wet weight of the liver	0.120^a ± μmol/g wet weight of the liver	13.27^a ± μmol/g wet weight of the liver	17.08^a ± μmol/g wet weight of the liver	20	199	significantly reduced	reduced the decrease	significantly increased	significantly increased	suppressed the increase	toxic effects (mice [2]): no toxic effects; increase of glutathione concentration in the hepatic tissue (mice [3]; after 12 hours, 1.2 or 2.4 mmol/kg of body weight): could still be detected; GSH % of control (mice [3]; CP 1.2 mmol/kg, 1 h after injection): 117.5 % of control; GSH % of control (mice [3]; CP 1.2 mmol/kg, 4 h after injection): 87.2 % of control; GSH (mice [3]; [6]): 6.48 ± 0.67 μmol/g of wet weight; GSH % of control (mice [3]; [6]): 108.5 % of control; GSH % of control (mice [3]; CP 1.2 mmol/kg, 12 h after injection): 122.0 % of control; GSH % of control (mice [3]; CP 2.4 mmol/kg, 1 h after injection): 127.6 % of control; GSH (mice [3]; [7]): 5.76 ± 0.42 μmol/g of wet weight; GSH % of control (mice [3]; [7]): 90.3 % of control; GSH % of control (mice [3]; CP 2.4 mmol/kg, 8 h after injection): 112.0 % of control; GSH % of control (mice [3]; CP 2.4 mmol/kg, 12 h after injection): 154.5 % of control; glutathione concentration in the hepatic tissue (mice [3]; within one hour post application of 1.2 or 2.4 mmol/kg of body weight): rose considerably; effect against high concentrations of paracetamol in the hepatic cell model (Hep G2 cells; Hep G2 cell culture): protective effect
